Test results: patent US5932742A, “Arylsulfonylimidazolone derivatives as an antitumor agent” (priority 1996, dated 1999)
In brackets after ≈: the same amount, converted by molar mass. Where a name gives a salt, the structure may show the parent alone. Read-outs that look alike come from different tables or passages of the source.

Legend:
[1] = test system: Colo205 (ATCC CCL 222): human colon adenocarcinoma; test: In vitro antitumor activity, MTT assay, Colo205; type: cell-based; details: Homo sapiens
Experimental: (§1) In vitro antitumor activity against human tumor cell lines
(§2) In vitro antitumor activity of the compounds according to the present invention was determined by MTT assay method against the following human tumor cell lines:
Colo205 (ATCC CCL 222): human colon adenocarcinoma
(§3) In this test, the known antineoplastic compounds, Doxorubicin and Sulofenur, were used as the comparative agents.
(§4) Each of the tumor cells was cultured in RPMI 1640 media containing 10% fetal bovine serum, 100 IU/ml penicillin and 100 μg/ml streptomycin, and then periodically subcultured once or twice per week in trypsin-EDTA solution containing 0.05% trypsin and 0.53mM EDTA.4Na. The human tumor cell line thus obtained (10,000cells/100 μl) was plated on 96-well microplate and then cultured for 24 hrs at 37° C. in a 5% CO2 incubator. Test compound was dissolved in DMSO, sterilized with 0.22 μm PVDF filter, and then serially 5-fold diluted from 40 μg/ml to 0.00256μg/ml. 100 μl of the sample solution thus prepared and RPMI 1640 medium only (control group) were added to 96-well microplate containing the human tumor cell, respectively. The final concentration of the test compound was in the range from 20 μg/ml to 0.00128 μg/ml and the concentration of DMSO was below 0.5%. The cells were cultured for 48 hrs at 37° C. in a 5% CO2 incubator. MTT(3-(4,5-Dimethylthiazole-2-yl)-e,5-diphenyltetrazoliumbromide) was dissolved in physiological saline in a concentration of 2 mg/ml and the resulting solution was filtered through 0.22 μm PTFE filter. 25 μl of MTT solution thus prepared was added to each well of 96-well microplate and incubated for additional 4 hrs at 37° C. in a 5% CO2 incubator. Then, the content of microplate was centrifuged at 1000 rpm for 10 min, and supernatant was removed by flicking. The formazan formed from MTT by mitochondrial succinate dehydrogenase was dissolved in 100 μl of DMSO. The absorbance of each well was measured at 540nm by micro ELISA reader and the cytotoxicity was calculated by dividing the absorbance of test group by the absorbance of control group. After the calculated cytotoxicity (%) was plotted, the concentration of 50% tumor growth inhibition concentration (IC50) was estimated by Linear-Regression method.

[2] = test system: KB (ATCC CCL 17): human epidermoid carcinoma; test: In vitro antitumor activity, MTT assay, KB; type: cell-based; details: Homo sapiens, read-out: IC50 (KB)
Experimental: as §1, §2
KB (ATCC CCL 17): human epidermoid carcinoma
as §3, §4

[3] = test system: A549 (ATCC CCL 185): human lung carcinoma; test: In vitro antitumor activity, MTT assay, A549; type: cell-based; details: Homo sapiens, A549, 48 h
Experimental: as §1, §2
A549 (ATCC CCL 185): human lung carcinoma
as §3, §4

[4] = test system: SK-OV-3 (ATCC HTB 77): human ovarian adenocarcinoma; test: In vitro antitumor activity, MTT assay, SK-OV-3; type: cell-based; details: Homo sapiens
Experimental: as §1, §2
SK-OV-3 (ATCC HTB 77): human ovarian adenocarcinoma
as §3, §4

[5] = test system: K562 (ATCC CCL 243): human chronic myelogenous leukemia; test: In vitro antitumor activity, MTT assay, K562; type: cell-based; details: Homo sapiens, K562, 48 h
Experimental: as §1, §2
K562 (ATCC CCL 243): human chronic myelogenous leukemia
as §3, §4

[6] = test system: P388 murine leukemia cells; test: In vivo antitumor activity against P388 murine leukemia cell; design: species or system BDF1 mouse; details: 6.25 mg/kg i.p., once per 2 days for 10 days; median survival time
Experimental: In vivo antitumor activity against P388 murine leukemia cell
P388 murine leukemia cells were injected into BDF1 mouse intraperitoneally and grown in the peritoneal cavity. The P388 cells were periodically exudated and reinjected intraperitoneally into mouse for subculture.
The cells were exudated, washed, resuspended in saline (2×10^7 cells/ml), and then injected intraperitoneally again into BDF1 mouse (2×10^6 cells/0.1 ml).
Test compound dissolved in appropriate vehicle was administered intraperitonealy or orally into the mouse which was implanted with P388 murine leukemia tumor cells in the frequency of once per 2 days for 10 days. The vehicle was administered into the mouse of control group. Then, the number of live animals were daily checked to estimate the median survival time (MST).
T/C ratio(%) of each test compound was calculated according to the following formula, and the test results are shown in Table 6.
T/C(%)=(MST of test group.div.MST of control group)×100

[7] = COLO 205, Table 1, 48 hrs, read-out: IC50 (Colo205)
[8] = COLO 205, Table 2, 48 hrs, read-out: IC50 (Colo205)

IC50 [1, 7] [µg/mL] | IC50 ([2]; Table 1, MTT, 48 hrs) [µg/mL] | IC50 ([3]; Table 1) [µg/mL] | IC50 ([4]; SK-OV-3, Table 1, 48 hrs) [µg/mL] | IC50 [1, 8] [µg/mL] | IC50 ([2]; Table 2, MTT, 48 hrs) [µg/mL] | IC50 ([3]; Table 2) [µg/mL] | IC50 ([4]; SK-OV-3, Table 2, 48 hrs) [µg/mL] | Compound | also measured
– | – | – | – | 0.91 (≈ 1.65 µM) | 0.198 (≈ 0.359 µM) | 0.509 (≈ 0.924 µM) | 0.598 (≈ 1.09 µM) | CC1Cc2cc(S(=O)(=O)n3cc(-c4ccccc4)[nH]c3=O)ccc2N1C(=O)c1ccc(NC(=O)CCl)cc1 (stereo not drawn) [Example 20, 4-phenyl-1-[N-(4-chloroacetylaminobenzoyl)-2-methylindoline-5-sulfonyl]-2-imidazolone] | –
– | – | – | – | 0.834 (≈ 1.93 µM) | 1.53 (≈ 3.54 µM) | 1.13 (≈ 2.61 µM) | 4.71 (≈ 10.9 µM) | CC1Cc2cc(S(=O)(=O)n3cc(-c4ccccc4)[nH]c3=O)ccc2N1C(=O)CCl (stereo not drawn) [Example 21, 4-phenyl-1-(N-chloroacetyl-2-methylindoline-5-sulfonyl)-2-imidazolone] | –
– | – | – | – | 1.05 | 1.12 | 0.604 | 1.52 | C=CCNCC(=O)N1c2ccc(S(=O)(=O)n3cc(-c4ccccc4)[nH]c3=O)cc2CC1C (stereo not drawn) [Example 28, 4-phenyl-1-(N-allylaminoacetyl-2-methylindoline-5-sulfonyl)-2-imidazolone.HCl] | –
– | – | – | – | 3.35 | 0.879 | 3.48 | 8.77 | CC(C)NCC(=O)N1CCc2cc(S(=O)(=O)n3cc(-c4ccccc4)[nH]c3=O)ccc21 [Example 24, 4-phenyl-1-(N-isopropylaminoacetylindoline-5-sulfonyl)-2-imidazolone.HCl] | –

The remaining lines, values behind:

Compound | IC50 [1, 7] [µg/mL] | IC50 ([2]; Table 1, MTT, 48 hrs) [µg/mL] | IC50 ([3]; Table 1) [µg/mL] | IC50 ([4]; SK-OV-3, Table 1, 48 hrs) [µg/mL] | IC50 [1, 8] [µg/mL] | IC50 ([2]; Table 2, MTT, 48 hrs) [µg/mL] | IC50 ([3]; Table 2) [µg/mL] | IC50 ([4]; SK-OV-3, Table 2, 48 hrs) [µg/mL] | also measured
CC1Cc2cc(S(=O)(=O)n3cc(-c4ccccc4)[nH]c3=O)ccc2N1C(=O)c1ccc([N+](=O)[O-])cc1 (stereo not drawn) [Example 11, 4-phenyl-1-[N-(4-nitrobenzoyl)-2-methylindoline-5-sulfonyl]-2-imidazolone] | 1.11 (≈ 2.2 µM) | 0.64 (≈ 1.27 µM) | 0.234 (≈ 0.464 µM) | 0.453 (≈ 0.898 µM) | – | – | – | – | –
CC(C)(C)NC(=O)N1CCc2cc(S(=O)(=O)n3cc(-c4ccccc4)[nH]c3=O)ccc21 [Example 8, 4-phenyl-1-(N-t-butylcarbamoylindoline-5-sulfonyl)-2-imidazolone] | 0.549 (≈ 1.25 µM) | 0.002 (≈ 0.00454 µM) | 0.02 (≈ 0.0454 µM) | 2.67 (≈ 6.07 µM) | – | – | – | – | –
COc1cccc2c1C(=O)c1c(O)c3c(c(O)c1C2=O)C[C@@](O)(C(=O)CO)C[C@@H]3O[C@H]1C[C@H](N)[C@H](O)[C@H](C)O1 [Doxorubicin, reference compound] | – | – | 0.742 (≈ 1.37 µM) | – | – | – | – | – | IC50 ([1]; COLO 205, 48 h, read-out: IC50 (Col205), Table 3): 6.3 µg/mL (≈ 11.6 µM); IC50 ([1]; COLO 205, 48 h, read-out: IC50 (Colo205), Table 1): 0.973 µg/mL (≈ 1.79 µM); IC50 ([1]; COLO 205, 48 h, read-out: IC50 (Colo205), Table 5): 0.961 µg/mL (≈ 1.77 µM); IC50 ([2]; 48 h): 0.914 µg/mL (≈ 1.68 µM); IC50 ([3]; Table 3): 0.67 µg/mL (≈ 1.23 µM); IC50 ([3]; Table 4): 1.08 µg/mL (≈ 1.99 µM); IC50 ([3]; Table 5): 1.68 µg/mL (≈ 3.09 µM); IC50 ([4]; SK-OV-3, 48 h, Table 1): 2.25 µg/mL (≈ 4.15 µM); IC50 ([4]; SK-OV-3, 48 h, Table 3): 1.31 µg/mL (≈ 2.42 µM); IC50 ([4]; SK-OV-3, 48 h, Table 4): 2.25 µg/mL (≈ 4.15 µM); IC50 ([4]; SK-OV-3, 48 h, Table 5): 1.6 µg/mL (≈ 2.94 µM); IC50 ([5]; read-out: IC50 (K562), Table 3): 0.276 µg/mL (≈ 0.508 µM); IC50 ([5]; read-out: IC50 (K562), Table 4): 0.962 µg/mL (≈ 1.77 µM); IC50 ([5]; read-out: IC50 (K562), Table 5): 0.78 µg/mL (≈ 1.44 µM)
CCCNC(=O)N1c2ccc(S(=O)(=O)n3cc(-c4ccccc4)[nH]c3=O)cc2CC1C (stereo not drawn) [Example 5, 4-phenyl-1-(N-propylcarbamoyl-2-methylindoline-5-sulfonyl)-2-imidazolone] | 0.519 (≈ 1.18 µM) | 0.105 (≈ 0.238 µM) | 0.09 (≈ 0.204 µM) | 0.146 (≈ 0.331 µM) | – | – | – | – | –
CCNC(=O)N1CCc2cc(S(=O)(=O)N3CC(c4ccccc4)NC3=O)ccc21 (stereo not drawn) [Example 29, 4-phenyl-1-(N-ethylcarbamoylindoline-5-sulfonyl)4,5-dihydro-2-imidazolone] | – | – | – | – | – | – | – | – | T/C rate (%) [6]: 113.6%; IC50 ([1]; COLO 205, Table 3, 48 hrs, read-out: IC50 (Col205)): 1 µg/mL (≈ 2.42 µM); IC50 ([3]; Table 3): 0.318 µg/mL (≈ 0.767 µM); IC50 ([4]; SK-OV-3, Table 3, 48 hrs): 1.95 µg/mL (≈ 4.7 µM); IC50 ([5]; Table 3, read-out: IC50 (K562)): 1 µg/mL (≈ 2.42 µM)
